Experimental data: the NIST ThermoML archive (doi:10.1021/je700140j)

Test: xn = mol fraction of the nth substance listed
Conditions: for surface tension liquid-gas: Ring tensiometer; for mass density / viscosity: 100.8 kPa, Liquid

OCc1ccccc1 [benzenemethanol] + CC(C)O
Conditions | mass density, 298.15 K [kg/m3] | mass density, 308.15 K [kg/m3] | mass density, 318.15 K [kg/m3] | surface tension liquid-gas, 298.15 K [mN/m] | surface tension liquid-gas, 308.15 K [mN/m] | surface tension liquid-gas, 318.15 K [mN/m] | viscosity, 298.15 K [mPa·s] | viscosity, 308.15 K [mPa·s] | viscosity, 318.15 K [mPa·s]
x2 = 0 | 1041.4 | 1033.6 | 1025.72 | 38.63 | 37.73 | 36.75 | 5.555 | 4.093 | 3.12
x2 = 0.05 | 1032.82 | 1025.02 | 1017.09 | 37.5 | 36.66 | 35.75 | 5.299 | 3.91 | 2.989
x2 = 0.1 | 1023.74 | 1015.91 | 1007.96 | 36.4 | 35.63 | 34.76 | 5.053 | 3.73 | 2.864
x2 = 0.15 | 1014.27 | 1006.4 | 998.38 | 35.35 | 34.6 | 33.77 | 4.799 | 3.558 | 2.745
x2 = 0.2 | 1004.39 | 996.5 | 988.43 | 34.3 | 33.59 | 32.78 | 4.559 | 3.389 | 2.628
x2 = 0.25 | 994.22 | 986.26 | 978.11 | 33.27 | 32.58 | 31.81 | 4.332 | 3.23 | 2.513
x2 = 0.3 | 983.63 | 975.59 | 967.39 | 32.27 | 31.58 | 30.83 | 4.116 | 3.076 | 2.4
x2 = 0.35 | 972.64 | 964.56 | 956.29 | 31.27 | 30.58 | 29.85 | 3.911 | 2.921 | 2.285
x2 = 0.4 | 961.2 | 953.08 | 944.75 | 30.3 | 29.6 | 28.9 | 3.714 | 2.772 | 2.172
x2 = 0.45 | 949.36 | 941.19 | 932.79 | 29.36 | 28.66 | 27.95 | 3.523 | 2.631 | 2.059
x2 = 0.5 | 937.02 | 928.79 | 920.32 | 28.45 | 27.75 | 27.05 | 3.335 | 2.49 | 1.953
x2 = 0.55 | 924.21 | 915.93 | 907.36 | 27.63 | 26.93 | 26.25 | 3.169 | 2.37 | 1.858
x2 = 0.6 | 910.83 | 902.49 | 893.86 | 26.83 | 26.15 | 25.48 | 3.01 | 2.256 | 1.769
x2 = 0.65 | 896.91 | 888.53 | 879.84 | 26.05 | 25.38 | 24.73 | 2.858 | 2.145 | 1.68
x2 = 0.7 | 882.44 | 874.02 | 865.32 | 25.28 | 24.61 | 23.98 | 2.715 | 2.042 | 1.594
x2 = 0.75 | 867.32 | 858.91 | 850.19 | 24.53 | 23.85 | 23.23 | 2.58 | 1.946 | 1.511
x2 = 0.8 | 851.54 | 843.1 | 834.29 | 23.78 | 23.1 | 22.48 | 2.46 | 1.851 | 1.434
x2 = 0.85 | 835.11 | 826.58 | 817.75 | 23.05 | 22.35 | 21.73 | 2.346 | 1.761 | 1.359
x2 = 0.9 | 817.95 | 809.39 | 800.5 | 22.33 | 21.6 | 20.96 | 2.251 | 1.675 | 1.295
x2 = 0.95 | 800 | 791.45 | 782.46 | 21.61 | 20.85 | 20.19 | 2.148 | 1.602 | 1.228
